Reference: ChEMBL document CHEMBL5215006, “Antitumor Activity of Piceamycin by Upregulation of N-Myc Downstream-Regulated Gene 1 in Human Colorectal Cancer Cells” (J Nat Prod, 2022)
Calls of active or inactive are those of the source. The calls are words filed in the database; no cut-off is given here.

Assays:
[1] = test system: HCT-116; test: Cell cycle arrest in human HCT-116 cells assessed as downregulation of CDK4 protein expression at 0.075 to 0.3 uM incubated for 24 hrs by immunoblotting assay; type: functional, cell-based; details: dose 0.075-0.3 µM
[2] = test system: SW480; test: Induction of apoptosis in human SW480 cells assessed as early apoptotic cells at 0.7 uM incubated for 48 hrs by Annexin V-FITC/PI staining based flow cytometry analysis (Rvb= 2.07%); type: functional
[3] = test system: SW480; test: Cell cycle arrest in human SW480 cells assessed as accumulation at Sub-G1 phase at 1.4 uM incubated for 24 hrs by RNaseA/propidium iodide staining based flow cytometry (reference value: 3.2 %); type: functional
[4] = test system: SW480; test: Induction of apoptosis in human SW480 cells assessed as necrotic cells at 0.35 uM incubated for 48 hrs by Annexin V-FITC/PI staining based flow cytometry analysis (Rvb= 0.07%); type: functional
[5] = test system: SW480; test: Induction of apoptosis in human SW480 cells assessed as early apoptotic cells at 1.4 uM incubated for 48 hrs by Annexin V-FITC/PI staining based flow cytometry analysis (Rvb= 2.07%); type: functional
[6] = test system: SW480; test: Induction of apoptosis in human SW480 cells assessed as upregulation of cleaved PARP expression at 1.4 uM measured at 12 to 48 hrs by immunoblotting assay; type: functional, cell-based; details: time 12-48 hrs, TDE = time-dependent effect
[7] = test system: SW480; test: Induction of apoptosis in human SW480 cells assessed as upregulation of cleaved caspase-9 expression at 1.4 uM measured after 48 hrs by immunoblotting assay; type: functional, cell-based
[8] = test system: HCT-116; test: Inhibition of cell migration in human HCT-116 cells at 0.075 to 0.3 uM incubated for 24 hrs by wound-healing assay; type: functional, cell-based; details: dose 0.075-0.3 µM, DDE = dose-dependent effect
[9] = test system: HCT-116; test: Antitumor activity against human HCT-116 cells assessed as decrease in c-Myc expression at 0.075 to 0.3 uM incubated for 24 hrs by immunoblotting assay; type: functional, cell-based; details: dose 0.075-0.3 µM
[10] = test system: SW480; test: Induction of apoptosis in human SW480 cells assessed as upregulation of cleaved caspase-8 expression at 1.4 uM measured at 12 to 48 hrs by immunoblotting assay; type: functional, cell-based; details: time 12-48 hrs, TDE = time-dependent effect
[11] = test system: HCT-116; test: Induction of apoptosis in human HCT-116 cells assessed as necrotic cells at 0.15 uM incubated for 48 hrs by Annexin V-FITC/PI staining based flow cytometry analysis (Rvb= 0.13%); type: functional
[12] = test system: HCT-116; test: Antimigratory activity against highly liver metastatic human HCT-116 cells assessed as downregulation of Snail protein expression at 0.075 to 0.3 uM incubated for 24 hrs by immunoblotting assay; type: functional, cell-based; details: dose 0.075-0.3 µM
[13] = test system: SW480; test: Induction of apoptosis in human SW480 cells assessed as late apoptotic cells at 0.35 uM incubated for 48 hrs by Annexin V-FITC/PI staining based flow cytometry analysis (Rvb= 5.26%); type: functional
[14] = test system: HCT-116; test: Induction of apoptosis in human HCT-116 cells assessed as upregulation of cleaved caspase-8 expression at 0.3 uM measured at 12 to 48 hrs by immunoblotting assay; type: functional, cell-based; details: time 12-48 hrs, TDE = time-dependent effect
[15] = test system: HCT-116; test: Anti-migratory activity against human HCT-116 cells assessed as downregulation of Snail protein expression at 0.075 to 0.3 uM incubated for 24 hrs by immunoblotting assay; type: functional, cell-based; details: dose 0.075-0.3 µM
[16] = test system: SW480; test: Cell cycle arrest in human SW480 cells assessed as accumulation at S phase at 0.35 uM incubated for 24 hrs by RNaseA/propidium iodide staining based flow cytometry (reference value: 16.7 %); type: functional
[17] = test system: HCT-116; test: Inhibition of colony formation in human HCT-116 cells at 0.075 to 0.3 uM incubated for 72 hrs by crystal violet staining based assay; type: functional, cell-based; details: dose 0.075-0.3 µM, DDE = dose-dependent effect
[18] = test system: HCT-116; test: Induction of apoptosis in human HCT-116 cells assessed as early apoptotic cells at 0.075 uM incubated for 48 hrs by Annexin V-FITC/PI staining based flow cytometry analysis (Rvb= 2.51%); type: functional
[19] = test system: SW480; test: Antiproliferative activity against human SW480 cells assessed as cell growth inhibition incubated for 72 hrs by SRB assay; type: functional, cell-based; details: SW480, 72 h
[20] = test system: HCT-116; test: Antiproliferative activity against human HCT-116 cells assessed as cell growth inhibition incubated for 72 hrs by SRB assay; type: functional, cell-based; details: HCT-116, 72 h
[21] = Toxicity in Balb/c mouse xenografted with human HCT-116 cells assessed as body weight change at 1 mg/kg,ip administrated for 18 days by 3 times per week; type: organism-based; details: in vivo, 432 h, time 18 day
[22] = test system: HCT-116; test: Antimigratory activity against highly liver metastatic human HCT-116 cells assessed as downregulation of N-cadherin protein expression at 0.075 to 0.3 uM incubated for 24 hrs by immunoblotting assay; type: functional, cell-based; details: dose 0.075-0.3 µM
[23] = test system: SW480; test: Cell cycle arrest in human SW480 cells assessed as accumulation at G2/M phase at 0.35 uM incubated for 24 hrs by RNaseA/propidium iodide staining based flow cytometry (reference value: 24.74 %); type: functional
[24] = test system: HCT-116; test: Induction of apoptosis in human HCT-116 cells assessed as early apoptotic cells at 0.3 uM incubated for 48 hrs by Annexin V-FITC/PI staining based flow cytometry analysis (Rvb= 2.51%); type: functional
[25] = Toxicity in Balb/c mouse xenografted with human HCT-116 cells assessed as body weight change at 3 mg/kg,ip administrated for 18 days by 3 times per week; type: organism-based; details: in vivo, 432 h, time 18 day
[26] = test system: SW480; test: Antitumor activity against human SW480 cells assessed as decrease in c-Myc expression at 0.35 to 1.4 uM incubated for 24 hrs by immunoblotting assay; type: functional, cell-based; details: dose 0.35-1.4 µM
[27] = test system: SW480; test: Induction of apoptosis in human SW480 cells assessed as viable cells at 0.35 uM incubated for 48 hrs by Annexin V-FITC/PI staining based flow cytometry analysis (Rvb= 92.6%); type: functional; details: read-out: Activity
[28] = test system: HCT-116; test: Induction of apoptosis in human HCT-116 cells assessed as necrotic cells at 0.3 uM incubated for 48 hrs by Annexin V-FITC/PI staining based flow cytometry analysis (Rvb= 0.13%); type: functional
[29] = test system: SW480; test: Induction of apoptosis in human SW480 cells assessed as viable cells at 0.7 uM incubated for 48 hrs by Annexin V-FITC/PI staining based flow cytometry analysis (Rvb= 92.6%); type: functional; details: read-out: Activity
[30] = test system: SW480; test: Inhibition of cell migration in human SW480 cells at 0.35 to 1.4 uM incubated for 24 hrs by wound-healing assay; type: functional, cell-based; details: dose 0.35-1.4 µM, DDE = dose-dependent effect
[31] = test system: HCT-116; test: Cell cycle arrest in human HCT-116 cells assessed as accumulation at S phase at 0.15 uM incubated for 24 hrs by RNaseA/propidium iodide staining based flow cytometry (reference value: 19.94 %); type: functional
[32] = test system: SW480; test: Anti-migratory activity against human SW480 cells assessed as upregulation of E-cadherin gene expression at 0.35 to 1.4 uM incubated for 24 hrs by RT-PCR assay; type: functional, cell-based; details: dose 0.35-1.4 µM
[33] = test system: HCT-116; test: Cell cycle arrest in human HCT-116 cells assessed as accumulation at Sub-G1 phase at 0.075 uM incubated for 24 hrs by RNaseA/propidium iodide staining based flow cytometry (reference value: 3.66 %); type: functional
[34] = test system: HCT-116; test: Induction of apoptosis in human HCT-116 cells assessed as upregulation of cleaved caspase-9 expression at 0.3 uM measured after 48 hrs by immunoblotting assay; type: functional, cell-based

Q: What does the source list for `C[C@@H]1\C=C/C=C/C=C\C=C\C=C\C(=O)C2=C(O)C(=O)C[C@@]2(C)/C=C/C=C\C=C/C(=O)NC1`?
A: Activity [1]: Active; Activity [2]: 12.31%; Activity [3]: 4.98%; Activity [4]: 0.06%; Activity [5]: 24.26%; Activity [6]: Tde; Activity [7]: Active; inhibition [8]: Dde; Activity [9]: Active; Activity [10]: Tde; Activity [11]: 0.18%; Activity [12]: Active; Activity [13]: 4.36%; Activity [14]: Tde; Activity [15]: Active; Activity [16]: 15.86%; inhibition [17]: Dde; Activity [18]: 8.29%; IC50 [19]: 650 nM; IC50 [20]: 140 nM; Activity [21]: Non-Toxic; Activity [22]: Active; Activity [23]: 24.45%; Activity [24]: 44.79%; Activity [25]: Non-Toxic; Activity [26]: Active; viability at 0.35 µM [27]: 93%; Activity [28]: 0.18%; viability at 0.7 µM [29]: 69.8%; inhibition [30]: Dde; Activity [31]: 11.41%; Activity [32]: Active; Activity [33]: 4.46%; Activity [34]: Active
